According to patent US20260256731A1, “RETINAL VASODILATOR AND PHARMACEUTICAL COMPOSITION” (TEIKYO UNIVERSITY, priority 2022, published 2026):
Where two headings read alike, the source gives them in different places. Each block holds one molecule with its values, some of them ahead of it.

Key:
retinal blood vessel = conditions: cited from earlier work
rat mesenteric artery = conditions: pre-contracted with phenylephrine; vascular endothelium-dependent; cited from earlier work
rat aorta = conditions: pre-contracted with phenylephrine; vascular endothelium-independent; cited from earlier work
rat pulmonary artery = conditions: cited from earlier work
porcine retinal artery = experiment: Retinal vasodilation test using porcine retinal extraction artery; format: cell-based, pig
Experimental: Pigs aged 8 to 12 weeks were euthanized. Immediately after euthanization, the eyeballs were excised. A retinal artery was separated from the excised eyeballs (Nagaoka et al., Invest Ophthalmol Vis Sci. 2007 February; 48(2):825-32.). An anterior eye part and a vitreous body were carefully taken out with an anatomical microscope. A posterior eye part was placed in an ice-cold dissection chamber containing a physiological saline solution (PSS: 145.0 mM NaCl, 4.7 mM KCl, 2.0 mM CaCl2), 1.17 mM MgSO4, 1.2 mM NaH2PO4, 5.0 mM glucose, 2.0 mM pyruvic acid, 0.02 mM EDTA, and 3.0 mM [3-(N-morpholino) propanesulfonic acid] (MOPS)) to which 1% albumin was added. A single secondary retinal artery (in-situ inner diameter: 90 to 130 μm, length: 0.6 to 1.0 mm) was carefully dissected using a Dumont microdissection forceps (Fine Science Tools, Inc., Foster City, CA) under observation with a stereomicroscope (model SZX12; Olympus, Melville, NY). After carefully removing the remaining nerve tissue and connective tissue, an artery was transferred to a Lucite-made blood vessel chamber into which a PSS-albumin solution equilibrated with air at room temperature was added for cannula insertion. A glass micro pipette (outer diameter of distal end: 30 to 40 μm) filled with the PSS-albumin solution was used to cannulate one end of the artery, and the outside of the artery was firmly tied to a pipette with 11-0 ophthalmic suture (Alcon, Fort Worth, TX). The other end of the blood vessel was cannulated with a second micro pipette and fixed with a suture. After the cannula insertion, the blood vessel and the pipette were transferred to the stage of an inverted microscope (model CKX41, Olympus); and a video camera (Sony DXC-190, Labtek, Campbell, CA), a video micrometer (Cardiovascular Research Institute, Texas A&M System Health Science Center, College Station, TX), and a data collection system (PowerLab, ADInstruments, Colorado Springs, CO) were connected to each other. Thereafter, the inner diameter was continuously measured and recorded during the experiment. The micro pipette was connected to an independent pressure reservoir (a 30 mL glass syringe). The blood vessel was pressurized to a lumen pressure of 55 cm H2O (40 mmHg) by adjusting the height of the reservoir.
The cannula-inserted arteriole was immersed in PSS at 36° C. to 37° C. to generate a basal tone. […] After the control reaction was terminated, the blood vessel was washed with PSS, and the basal tone was re-generated. […]
(§1) The blood vessel was relaxed with EDTA (1 mM)-calcium-free PSS, and the maximum diameter was obtained at a lumen pressure of 55 cmH2O. The change in diameter of the blood vessel in response to nobiletin was standardized by the maximum vasodilation and expressed as a percentage with respect to the maximum vasodilation. […]

[1] = tested on: porcine retinal artery treated with ODQ; experiment: Retinal vasodilation test using porcine retinal extraction artery treated with ODQ (guanylate cyclase inhibitor); format: cell-based, pig
Experimental: (§2) Pigs aged 8 to 12 weeks were euthanized. Immediately after euthanization, the eyeballs were excised. A retinal artery was separated from the excised eyeballs (Nagaoka et al., Invest Ophthalmol Vis Sci. 2007 February; 48(2):825-32.). An anterior eye part and a vitreous body were carefully taken out with an anatomical microscope. A posterior eye part was placed in an ice-cold dissection chamber containing a physiological saline solution (PSS: 145.0 mM NaCl, 4.7 mM KCl, 2.0 mM CaCl2), 1.17 mM MgSO4, 1.2 mM NaH2PO4, 5.0 mM glucose, 2.0 mM pyruvic acid, 0.02 mM EDTA, and 3.0 mM [3-(N-morpholino) propanesulfonic acid] (MOPS)) to which 1% albumin was added. […] Thereafter, the inner diameter was continuously measured and recorded during the experiment. […]
as §1
In the same manner as in Example 1, the porcine retinal extraction artery was treated with ODQ, and the role of guanylate cyclase in the retinal vasodilating effect of nobiletin was evaluated (n=7).

[2] = tested on: porcine retinal artery denuded of endothelium; experiment: Retinal vasodilation test using porcine retinal extraction artery denuded of endothelium (CHAPS); format: cell-based, pig; conditions: n=11, FIG. 3 (Example 3)
Experimental: as §2, with “added. A single secondary retinal artery (in-situ inner diameter: 90 to 130 μm, length: 0.6 to 1.0 mm) was carefully dissected using a Dumont microdissection forceps (Fine Science Tools, Inc., Foster City, CA) under observation with a stereomicroscope (model SZX12; Olympus, Melville, NY).” for “added.”
The blood vessel was relaxed with EDTA (1 mM)-calcium-free PSS, and the maximum diameter was obtained at a lumen pressure of 55 cmH2O. The change in diameter of the blood vessel in response to nobiletin was standardized by the maximum vasodilation and expressed as a percentage with respect to the maximum vasodilation.

Molecule: Oc1ccc(C=Cc2cc(O)cc(O)c2)cc1 [Resveratrol]
- Maximum vasodilation rate (retinal blood vessel; concentration 10^-4M): 60%

Molecule: O=C1CCc2cc(OCCCCc3nnnn3C3CCCCC3)ccc2N1 [Cilostazol]
- Maximum vasodilation rate (retinal blood vessel; concentration 10^-5M): 40%

- retinal vasodilating effect after treating the blood vessel with ODQ ([1]; ODQ 0.1 μM, 30 minutes, FIG. 1 (Example 1)): suppressed
- retinal vasodilating effect after addition of ODQ ([1]; n=7, FIG. 4 (Example 4)): suppressed
Molecule: COc1ccc(-c2cc(=O)c3c(OC)c(OC)c(OC)c(OC)c3o2)cc1OC [Nobiletin, 2-(3,4-Dimethoxyphenyl)-5,6,7,8-tetramethoxychromen-4-one]
- vasodilating action (rat mesenteric artery): vasodilating action
- vasodilating action (rat aorta): vasodilating action
- vasodilator response (rat pulmonary artery): did not occur
- retinal vasodilating effect compared with positive control SNP (porcine retinal artery; FIG. 1 (Example 1)): higher than that of SNP
- Maximum vasodilation rate (porcine retinal artery; concentration 10^-4M, percentage with respect to the maximum vasodilation): 90%
- retinal vasodilating effect (porcine retinal artery; extracted porcine retinal artery, FIG. 1 (Example 1)): strong retinal vasodilating effect in a dose-dependent manner
- vasodilating action in comparison with known medications (porcine retinal artery; influence of the solvent excluded, Table 1): most powerful vasodilating action
- vasodilating effect in artery with vascular endothelium removed (denudation) compared with artery not denuded [2]: suppressed

Molecule: CCCCCCCC(=O)CC[C@@H]1[C@@H](C/C=C\CCCC(=O)O)[C@@H](O)C[C@H]1O [Unoprostone]
- Maximum vasodilation rate (retinal blood vessel; concentration 10^-5M): 30%

Molecule: CC#CCC(C)[C@H](O)/C=C/[C@@H]1[C@H]2c3cccc(CCCC(=O)O)c3O[C@H]2C[C@H]1O (mixture of isomers) [Beraprost]
- Maximum vasodilation rate (retinal blood vessel; concentration 10^-7M): 70%

B1: Adiponectin (protein, UniProt Q15848 19-244, looked up)
Adiponectin: ETTTQGPGVLLPLPKGACTGWMAGIPGHPGHNGAPGRDGRDGTPGEKGEKGDPGLIGPKGDIGETGVPGAEGPRGFPGIQGRKGEPGEGAYVYRSAFSVGLETYVTIPNMPIRFTKIFYNQQNHYDGSTGKFHCNIPGLYYFAYHITVYMKDVKVSLFKKDKAMLFTYDQYQENNVDQASGSVLLHLEVGDQVWLQVYGEGERNGLYADNDNDSTFTGFLLYHDTN
- Maximum vasodilation rate (retinal blood vessel; concentration 8 μg/mL): 50%
